Source: BindingDB's records for doi:10.1021/jm0506165 (Universita Di Napoli Federico Ii, 2006)

Molecular target: Protein farnesyltransferase/geranylgeranyltransferase type-1 subunit alpha (Bos taurus, UniProt P29702)
Assay: PFT IC50 Determination
Conditions: pH 7.5; 37 °C
Procedure: Assays for PFT activity were performed with a PFT-specific scintillation assay (SPA) kit (Amersham Biosciences, Piscataway, NJ). IC50 values were calculated using linear regression analysis of the plots of [3H] farnesyl pyrophosphate (FPP) prenylation versus concentration of compounds.

| SMILES | IC50 [nM] |
| --- | --- |
| CSCC[C@H](NC(=O)[C@H](Cc1ccc(O)c(C)c1C)NC(=O)[C@@H](NC(=O)[C@@H](N)CS)C(C)C)C(=O)O [(2S)-2-[(2S)-2-[(2S)-2-[(2R)-2-amino-3-sulfanylpropanamido]-3-methylbutanamido]-3-(4-hydroxy-2,3-dimethylphenyl)propanamido]-4-(methylsulfanyl)butanoic acid] | 100 |
| CSCC[C@H](NC(=O)[C@@H](Cc1ccc(O)c(C)c1C)NC(=O)[C@@H](NC(=O)[C@H](CS)NC=O)C(C)C)C(=O)O [Cmpound XI] | > 100000 |
